Data: US6140309A, “Vasoactive effects and free radical generation by β-amyloid peptides” (University of South Florida, priority 1996, dated 2000)
“Also recorded” adds a separate entry of the source.

Key:
[1] = system: blood vessel (rat aorta) with intact endothelium; assay: β-amyloid induced contraction (vasoactivity) of blood vessel rings in tissue bath; type: cell-based
Experimental: (§1) Freshly excised rat and porcine blood vessels were placed in Kreb's bicarbonate buffer equilibrated with 5% CO2 in O2. The buffer composition consisted of 118.2 mM NaCl, 4.7 mM KCl, 1.2 mM MgSO4, 2.5 mM CaCl2, 1.2 mM NaH2 PO4, 23 mM NaHCO3 and 11.2 mM glucose. After cleaning the vessels free of fat and other adhering tissues, the vessels were cut into ring segments of approximately 3mm in length. Care was taken not to damage the intimal surface.
The endothelium was removed from some preparations by rubbing the inside of the lumen with a metal spatula for six to ten seconds and subsequent rinsing with buffer. The removal of endothelium was confirmed by testing for relaxation to acetylcholine [Furchgott and Zawadzki, 1980].
(§2) The blood vessel preparations were mounted on stainless steel hooks attached to a force-displacement transducer and equilibrated under the optimum tension of 1.3 g for a period of sixty minutes in a tissue bath (10 ml) containing oxygenated (5% CO2 in O2) Kreb's buffer at 37° C. The buffer was changed every fifteen minutes. After equilibration for sixty minutes the viability of the blood vessel with intact endothelium was established by constricting the blood vessel using phenylephrine ([…]). This dose of phenylephrine elicited 80% of the maximum response. […] The vessel preparations were washed for fifteen minutes before various manipulations as described below.
Referring to FIG. 10, the arrow indicates the addition of 10^-6 M β-amyloid. The control tissue received no β-amyloid. SOD (150 units/ml) was added thirty seconds prior to the addition of β-amyloid. The maximum contraction induced by β-amyloid was 1.14±0.13 (g) and in presence of SOD the contraction was reduced to 0.04±0.02 (g). Values represent the mean ±SEM of five separate experiments.

blood vessel (rat aorta) = assay: Acetylcholine induced relaxation of phenylephrine-preconstricted aorta after β-amyloid pretreatment; type: cell-based
Experimental: as §1, §2
As shown in FIG. 11a the aorta was preconstricted with 10^-7 M PE and relaxed with increasing doses of acetylcholine as shown by the arrows. (1=10^-9 M, 2=10^-8 M, 3=5×10^-8 M, 4=10^-7 M, 5=5×10^-7 M, 6=10^-6 M, 7=10^-5 M, 8=5×10^-5 M, the curve denoted by (C) is the control curve and +Aβ indicates the curve for β-amyloid treated aorta.)
FIG. 11b illustrates the relaxation by acetylcholine under control conditions and following fifteen minute incubation with 10^-6 M β-amyloid protein. The acetylcholine relaxation curve is shifted to the right but maintains its sigmoidal form indicating attenuation of acetylcholine induced relaxation. Values represent the mean ±SEM of 5 or more experiments. […] At higher doses of acetylcholine greater percentage changes in relaxation occur preserving the sigmoidal response.

aortic rings = assay: β-amyloid augmentation of phenylephrine (PE) induced contraction of aortic rings; type: cell-based, rat; settings: for PE induced contraction, +β-Amyloid P1 (±SEM), percent of control value: 10^-6 M β-amyloid fifteen minutes, control maximum = 100%; for PE induced contraction, +β-Amyloid P2 (±SEM), percent of control value: repeated after rinsing, no further β-amyloid
Experimental: as §1, §2
The procedure was then repeated following incubation of the tissue with 10^-6 M β-amyloid for fifteen minutes (P1). The tissue was then rinsed and contractions repeated twice following fifteen minute incubation (P2 & P3) without further addition of β-amyloid. Arrows are shown for points of addition for P3.
Following a fifteen minute incubation, the preparations were contracted with 10^-7 M phenylephrine (PE) as described earlier. Control contractions with PE alone were carried out in presence of the various test compounds. Values represent the mean ±SEM of four or more experiments. The heat-inactivated SOD was prepared by placing it in boiling water for thirty minutes followed by cooling prior to use. The hydrogen peroxide-inactivated SOD was prepared by exposing SOD to 10 mM H2 O2 for thirty minutes at pH 8.5 and subsequent separation using Microcon filtration system. The amyloid induced PE contraction was blocked by active SOD. Neither albumin or inactivated SOD had any effect on the amyloid activity.
The effect of preincubation of blood vessel with 10^-6 M β-amyloidon contraction induced by phenylephrine (2,4,8, & 16×10^-8 M is shown in Table 1). The maximum contraction in the absence of β-amyloid is taken as 100% and the values obtained following exposure to β-amyloid are expressed as percent of control value. After washing out phenylephrine and acetylcholine of the control contraction, β-amyloid augmented the phenylephrine induced contractions (P1). This effect was blocked by SOD. Washing out the phenylephrine and acetylcholine of the post peptide contraction and repeating the contractions caused further enhancement (P2). Values represent the mean ±SEM of nine or more experiments.
The tissue was then incubated for fifteen minutes with β-amyloid (5×10^-7 M) with or without the drug, followed by contractions with PE. The concentrations compounds used were: L-NMMA, an inhibitor of NO synthase (10^-4 M); indomethacin, an inhibitor of the cyclooxygenase pathway (10^-5 M); SQ 29548, a thromboxane A2 receptor antagonist (10^-5 M); and catalase (1000 units/ml). Values are represented as percentage of the maximal contraction obtained with β-amyloid and PE alone and standardized to remove the intrinsic effects (if any) of each drug on PE contraction alone. The results represent the mean ±SEM of five or more experiments.

[2] = system: endothelial cells in aortic rings; assay: Electron microscopy of the endothelial cell layer in aortic rings; type: cell-based, rat
Experimental: As shown in FIGS. 14A-F, […], or in presence of β-amyloid (10^-6 M), or SOD (150 units/ml) and β-amyloid.The tissue samples were kept in glutaraldehyde solution at 4° C. until processed and then rinsed with cacodylate buffer. The tissues were postfixed with 1% buffered osmium tetroxide, dehydrated with graded ethanol solutions, and embedded in a mixture of eponaraldite. Ultrathin sections were stained with uranyl acetate and lead citrate and viewed on model 7000 Hitachi transmission electron microscope. The inset bar indicates one micron. The experiment was repeated three or more times with blood vessels from different animals.

[3] = system: endothelial cell layer in rat coronary artery; assay: Electron microscopy of the endothelial cell layer in rat coronary artery; type: cell-based; settings: β-amyloid thirty minutes at 10^-6 M
Experimental: The physiological effects of β-amyloid treatment on the coronary artery with and without pretreatment with SOD is shown in FIGS. 7A-C. FIGS. 7A-C are electron micrographs showing the endothelial cell layer in rat coronary artery. […] The tissue samples were kept in glutaraldehyde solution at 4° C. until processed and then rinsed with cacodylate buffer. The tissues were post-fixed with 1% buffered osmium tetroxide, dehydrated with grated ethanol solutions, and embedded in a mixture of eponaraldite. Ultra thin sections were stained with uranyl acetate and lead citrate and viewed on a model 7,000 Hitachi transmission electron microscope. The inset bar indicates two microns. The experiment was repeated three or more times with blood vessels from different animals. FIG. 7A is a control coronary artery and depicts normal endothelial cells closely adhering to the intimal elastic lamina lining of the lumen. […] FIG. 7C depicts a rat coronary artery pretreated with SOD (150 units/ml, for thirty seconds prior to the addition of β-amyloid).

[4] = system: porcine coronary arteries; assay: Amyloid peptide induced contraction of porcine coronary arteries; type: cell-based; settings: increasing concentrations of amyloid peptide
Source text: Freshly isolated porcine coronary arteries were studied by the methods described above for rat aorta.

Porcine aorta = assay: U46619 constriction and bradykinin relaxation of porcine vessel after amyloid peptide; type: cell-based; settings: single dose of amyloid
Source text: The effect of pre-treatment with a single dose of amyloid protein on relaxation induced by increasing concentrations of the vasodilator bradykinin is shown in FIG. 23. […] was preconstricted with a single dose of the vasoconstrictor U46619.

[5] = system: bovine mid cerebral arteries; assay: Effect of β-amyloid on bovine cerebral artery (U46619 contraction, bradykinin vasodilation); type: cell-based; settings: 1 μM β-amyloid for 15 minutes
Experimental: Freshly dissected bovine mid cerebral arteries were cut into 3 mm rings and studied in tissue chamber as described earlier. Contraction of the blood vessel to the vasoconstrictor U46619 was studied before and after treatment with 1 μM β-amyloid for 15 minutes. […] (See FIG. 24).

β-amyloid concentration required to induce the morphological changes ([2]; incubation periods of fifteen minutes): ≥ 5×10^-7 M
Substance: β-amyloid
duration of the vasoactivity (contractions and relaxations) [1]: fifteen to twenty minutes | time until vasoactive effect is evident [1]: within thirty seconds; also recorded: less than one minute; also recorded: less than five minutes | initial detectable change: minor relaxation ([1]; after addition of β-amyloid): < 0.1 g | effect of β-amyloid on basal tension ([1]; increasing concentrations of β-amyloid): constricted the blood vessel in a concentration-dependent manner | dependence of the constricting effect on endothelium ([1]; vessel with vs without endothelium): only occurred in the presence of endothelium | cumulative percentage relaxation by acetylcholine after β-amyloid (blood vessel (rat aorta); 10^-6 M β-amyloid, fifteen minute incubation, 10^-7 M phenylephrine, all points past 10^-8 M acetylcholine): significantly lowered | effect of β-amyloid pretreatment on acetylcholine induced relaxation (blood vessel (rat aorta); cumulative small doses of acetylcholine (FIG. 4)): significantly reduced relaxation induced by the same doses of acetylcholine | effect of washing the tissue after β-amyloid on acetylcholine induced relaxation (blood vessel (rat aorta); washout after β-amyloid exposure): did not restore the acetylcholine-induced relaxation to control levels | effect of β-amyloid pretreatment on phenylephrine constriction (aortic rings; FIG. 4): enhanced constriction | PE induced contraction, +β-Amyloid P1 (±SEM), percent of control value (aortic rings; PE 2×10^-8 M): 13.3 (5.9) % | PE induced contraction, +β-Amyloid P2 (±SEM), percent of control value (aortic rings; PE 2×10^-8 M): 20 (5.0) % | PE induced contraction, +β-Amyloid P1 (±SEM), percent of control value (aortic rings; PE 4×10^-8 M): 75 (6.0) % | PE induced contraction, +β-Amyloid P2 (±SEM), percent of control value (aortic rings; PE 4×10^-8 M): 99 (15.0) % | PE induced contraction, +β-Amyloid P1 (±SEM), percent of control value (aortic rings; PE 8×10^-8 M): 105 (15.0) % | PE induced contraction, +β-Amyloid P2 (±SEM), percent of control value (aortic rings; PE 8×10^-8 M): 133 (20.0) % | PE induced contraction, +β-Amyloid P1 (±SEM), percent of control value (aortic rings; PE 16×10^-8 M): 128 (11.7) % | PE induced contraction, +β-Amyloid P2 (±SEM), percent of control value (aortic rings; PE 16×10^-8 M): 141 (17.6) % | morphological effect on endothelial cells ([2]; β-amyloid 10^-6 M, 37° C., thirty minutes): induced significant damage to the endothelial cells | morphology of endothelial layer after β-amyloid [3]: Derangement of the endothelial layer, condensed nucleus, separation from the intimal elastic lamina, and areas of denuded internal elastic lamina | contraction of porcine coronary artery samples [4]: dose dependent contraction | effect on vasodilation by bradykinin (Porcine aorta; increasing concentrations of bradykinin): reduced the vasodilation caused by the bradykinin | effect on vasoconstriction (Porcine aorta; preconstricted with U46619): significant increase in vasoconstriction | contraction induced by the vasoconstrictor U46619 after β-amyloid [5]: significantly increased
